Measured values: patent US20120015906A1, “USES OF BORTEZOMIB IN PREDICTING SURVIVAL IN MULTIPLE MYELOMA PATIENTS” (priority 2009, published 2012)

Assays:
Assay type in all cases: in vivo, human
[1] = tested on: CD138-purified plasma cells; experiment: Gene expression profiling of plasma cells prior to and 48 hr after bortezomib test-dose; conditions: for Mean log2 Expression Change / Mean log2 Expression Change, Average: 48 hr after test-dose vs baseline
Experimental: Pharmacogenomic (PG) studies were performed as part of two TT3 trials (2003-33, n=303; 2006-66, n=177), obtaining plasma cells prior to and 48 hr after a bortezomib test-dose (1.0 mg/m2), which was accomplished in 142 patients receiving 2003-33 (training set) and […] receiving 2006-66 (test set). […] A continuous risk score was calculated and an optimal cut-point for event-free survival separation determined. The independent prognostic power of the binary risk score was tested in 2006-66. Multivariate analyses (MV) were employed to determine the role of post-bortezomib risk in relationship to standard prognostic variables and 70-gene baseline risk model.
The details of Total Therapy 3 are known in the art. In brief, protocol 2003-33 enrolled 303 newly diagnosed patients with myeloma into a tandem transplantation program, employing 2 cycles each of induction chemotherapy with VTD-PACE (bortezomib, thalidomide, dexamethasone; 4-day continuous infusions of cisplatin, doxorubicine, cyclophosphamide, etoposide) prior to and after melphalan-based transplantation, followed by VTD maintenance. A pharmaco-genomic aspect of the protocol called for gene expression profiling analyses of CD138-purified plasma cells obtained prior to and 48 hr following a test-dose application of bortezomib (1.0 mg/m2). The observation of prognostic consequences of bortezomib-induced gene expression profiling alterations provided the rationale for accrual of an additional 177 patients to an extension TT3 protocol, 2006-66, in order to validate the pharmaco-genomic data generated in the 2003-33 trial. Gene expression profiling baseline data were available in 275 and 169 patients entered on 2003-33 and 2006-66, respectively, 142 and 128 of whom had paired samples at baseline and 48 hr after test-dosing.
Multiple myeloma plasma cells were purified from bone marrow aspirates prior to and 48 hr following in vivo exposure to 1.0 mg/m2 of bortezomib in 142 of 303 patients enrolled in UARK2003-33 and 128 of 177 accrued to UARK2006-66. RNA was isolated from tumor cells and run on Affymetrix U133Plus2.0 microarrays. Multiple myeloma plasma cells were isolated from heparinized bone marrow (BM) aspirates using CD138-based immunomagnetic bead selection using the Miltenyi AutoMacs device (Miltenyi, Bergisch Gladbach, Germany). Peripheral Blood mononuclear cells were obtained through Ficoll gradient centrifugation. RNA purification, cDNA synthesis, cRNA preparation, and hybridization to the Human Genome U133Plus 2.0 GeneChip microarrays (Affymetrix, Santa Clara, Calif.) were performed.
The Affymetrix U133Plus2.0 microarrays were preprocessed and normalized with MAS5.0 software. […] Each of these 1051 genes was then correlated with event-free survival in a Cox regression model and ranked the genes by p-values. In order to explore the various potential survival implications, two sets of covariates were considered in the Cox model for each gene: a) percent change at 48 hr compared to the baseline expression, and b) 48 hr expression.

proteasome genes = experiment: Proteasome gene expression changes after short-term exposure (test-dosing) to bortezomib, dexamethasone, thalidomide, melphalan; conditions: test-dosing in myeloma patients
Excerpt: In earlier studies, pharmacogenomics was used to identify genes altered by short-term exposure of therapy-naïve cases to thalidomide and dexamethasone. Little to no overlap was found in the genes altered by these agents with those altered by bortezomib.

proteasome proteins = experiment: Mass spectrometry of proteasome proteins after bortezomib; conditions: mass spectroscopy, protein level
Excerpt: Representative examples of proteasome up-regulation after bortezomib at both the RNA and protein levels are depicted.
For further validation of GEP-derived data, the effects of bortezomib on proteasome proteins was also investigated by mass spectroscopy, (FIG. 8A). Representative examples of proteasome up-regulation after bortezomib at both the RNA and protein levels are depicted in FIG. 8A-8B.

CC(C)C[C@H](NC(=O)[C@H](Cc1ccccc1)NC(=O)c1cnccn1)B(O)O [bortezomib]
Mean log2 Expression Change ([1]; ACVR1C 1552519_at): −0.17 | Mean log2 Expression Change ([1]; ALDOA 238996_x_at): 0.36 | Mean log2 Expression Change ([1]; ANKRD37 242548_x_at): −0.39 | Mean log2 Expression Change ([1]; BIRC5 210334_x_at): −0.35 | Mean log2 Expression Change ([1]; C1orf31 225638_at): 0.18 | Mean log2 Expression Change ([1]; C1orf128 229856_s_at): −0.32 | Mean log2 Expression Change ([1]; C9orf130 227893_at): 0.16 | Mean log2 Expression Change ([1]; C14orf100 223215_s_at): 0.12 | Mean log2 Expression Change ([1]; C17orf60 217513_at): 0.32 | Mean log2 Expression Change ([1]; CHORDC1 218566_s_at): 0.15 | Mean log2 Expression Change ([1]; CISH 221223_x_at): −0.20 | Mean log2 Expression Change ([1]; CISH 223377_x_at): −0.18 | Mean log2 Expression Change ([1]; CISH 223961_s_at): −0.32 | Mean log2 Expression Change ([1]; COMMD8 218351_at): 0.16 | Mean log2 Expression Change ([1]; COPS5 201652_at): 0.12 | Mean log2 Expression Change ([1]; COX6C 201754_at): 0.12 | Mean log2 Expression Change ([1]; CRYGS 223643_at): −0.18 | Mean log2 Expression Change ([1]; ENSA 202596_at): 0.12 | Mean log2 Expression Change ([1]; FLNA 214752_x_at): 0.18 | Mean log2 Expression Change ([1]; FOSB 202768_at): −0.54 | Mean log2 Expression Change ([1]; FUNDC1 235346_at): 0.13 | Mean log2 Expression Change ([1]; GABARAPL1 208869_s_at): 0.20 | Mean log2 Expression Change ([1]; HIST1H3B 208576_s_at): 0.40 | Mean log2 Expression Change ([1]; HNRPC 200014_s_at): 0.11 | Mean log2 Expression Change ([1]; HNRPC 212626_x_at): 0.16 | Mean log2 Expression Change ([1]; K1AA1394 228984_at): −0.29 | Mean log2 Expression Change ([1]; K1AA1754 225582_at): −0.14 | Mean log2 Expression Change ([1]; KLHL7 223250_at): 0.09 | Mean log2 Expression Change ([1]; LAP3 217933_s_at): 0.15 | Mean log2 Expression Change ([1]; LAPTM4A 200673_at): 0.12 | Mean log2 Expression Change ([1]; LOC400657 226924_at): 0.11 | Mean log2 Expression Change ([1]; LOC643318 1557633_at): −0.29 | Mean log2 Expression Change ([1]; LOC644250 230292_at): −0.34 | Mean log2 Expression Change ([1]; LZTR2 1564423_a_at): −0.23 | Mean log2 Expression Change ([1]; MGC61598 226499_at): −0.29 | Mean log2 Expression Change ([1]; MRPL47 223480_s_at): 0.09 | Mean log2 Expression Change ([1]; NMT1 201157_s_at): 0.12 | Mean log2 Expression Change ([1]; NOLA1 219110_at): 0.11 | Mean log2 Expression Change ([1]; NR4A1 202340_x_at): −0.79 | Mean log2 Expression Change ([1]; NXT2 209628_at): 0.13 | Mean log2 Expression Change ([1]; PDE4B 203708_at): −0.25 | Mean log2 Expression Change ([1]; PDE4B 211302_s_at): −0.28 | Mean log2 Expression Change ([1]; PDE4B 215671_at): −0.42 | Mean log2 Expression Change ([1]; PSMA4 203396_at): 0.14 | Mean log2 Expression Change ([1]; PSMA7 201114_x_at): 0.21 | Mean log2 Expression Change ([1]; PSMB2 200039_s_at): 0.17 | Mean log2 Expression Change ([1]; PSMB3 201400_at): 0.13 | Mean log2 Expression Change ([1]; PSMB4 202243_s_at): 0.19 | Mean log2 Expression Change ([1]; PSMB4 202244_at): 0.15 | Mean log2 Expression Change ([1]; PSMB7 200786_at): 0.15 | Mean log2 Expression Change ([1]; PSMC4 201252_at): 0.16 | Mean log2 Expression Change ([1]; PSMC5 209503_s_at): 0.17 | Mean log2 Expression Change ([1]; PSMD2 200830_at): 0.13 | Mean log2 Expression Change ([1]; PSMD4 200882_s_at): 0.19 | Mean log2 Expression Change ([1]; PSMD4 210460_s_at): 0.19 | Mean log2 Expression Change ([1]; PSMD4 211609_x_at): 0.20 | Mean log2 Expression Change ([1]; PSMD14 212296_at): 0.23 | Mean log2 Expression Change ([1]; RBM33 238801_at): −0.26 | Mean log2 Expression Change ([1]; RPL41 216215_s_at): −0.16 | Mean log2 Expression Change ([1]; SLC25A14 204587_at): −0.10 | Mean log2 Expression Change ([1]; SNRPD1 202690_s_at): 0.11 | Mean log2 Expression Change ([1]; STAU2 229417_at): 0.22 | Mean log2 Expression Change ([1]; STAU2 233909_at): −0.40 | Mean log2 Expression Change ([1]; STX11 235670_at): −0.14 | Mean log2 Expression Change ([1]; SUMO1 211069_s_at): 0.10 | Mean log2 Expression Change ([1]; TAGAP 1552542_s_at): −0.19 | Mean log2 Expression Change ([1]; TBC1D9 212960_at): −0.19 | Mean log2 Expression Change ([1]; TMC8 236554_x_at): 0.24 | Mean log2 Expression Change ([1]; TUBA6 209251_x_at): 0.12 | Mean log2 Expression Change ([1]; UBPH 205687_at): 0.16 | Mean log2 Expression Change ([1]; WIRE 212050_at): −0.10 | Mean log2 Expression Change ([1]; ZNF710 213658_at): −0.12 | Mean log2 Expression Change, Average ([1]; average of the Bad Genes): 0.13 | Mean log2 Expression Change, Average ([1]; average of the Good Genes): −0.16 | average expression decrease of the good genes from baseline to post-bortezomib ([1]; high-risk group): 1.22 fold | average expression increase of the bad genes from baseline to post-bortezomib ([1]; high-risk group): 1.21 fold | average expression decrease of the good genes from baseline to post-bortezomib ([1]; low-risk group): 1.09 fold | average expression increase of the bad genes from baseline to post-bortezomib ([1]; low-risk group): 1.07 fold | Mean log2 Expression Change ([1]; probeset 226399_at (no gene symbol)): 0.09 | Mean log2 Expression Change ([1]; probeset 227524_at (no gene symbol)): −0.17 | Mean log2 Expression Change ([1]; probeset 229388_at (no gene symbol)): 0.22 | Mean log2 Expression Change ([1]; probeset 236986_at (no gene symbol)): −0.13 | Mean log2 Expression Change ([1]; probeset 239082_at (no gene symbol)): −0.11 | Mean log2 Expression Change ([1]; probeset 239343_at (chr12q23.3, no gene symbol)): 0.19 | Mean log2 Expression Change ([1]; probeset 1561060_at (no gene symbol)): −0.27 | proteasome gene expression change after short-term exposure (proteasome genes): hyper-activation of proteasome genes | proteasome proteins after bortezomib (proteasome proteins): up-regulation
